Experimental findings from patent US20180141962A1, “AZACARBAZOLE BTK INHIBITORS” (MERCK SHARP & DOHME CORP., priority 2015, published 2018) are described below.

One assay deals with T1, BTK enzyme (recombinant full-length BTK, hBTK) (Homo sapiens, UniProt Q06187).
T1 construct: recombinant protein from baculovirus-transfected Sf9 cells: full-length BTK, 6HIS-tag cleaved; 6HIS (cleaved yes); made in house; host or cells: baculovirus-transfected Sf9 cells
T1 sequence (Q06187 whole entry): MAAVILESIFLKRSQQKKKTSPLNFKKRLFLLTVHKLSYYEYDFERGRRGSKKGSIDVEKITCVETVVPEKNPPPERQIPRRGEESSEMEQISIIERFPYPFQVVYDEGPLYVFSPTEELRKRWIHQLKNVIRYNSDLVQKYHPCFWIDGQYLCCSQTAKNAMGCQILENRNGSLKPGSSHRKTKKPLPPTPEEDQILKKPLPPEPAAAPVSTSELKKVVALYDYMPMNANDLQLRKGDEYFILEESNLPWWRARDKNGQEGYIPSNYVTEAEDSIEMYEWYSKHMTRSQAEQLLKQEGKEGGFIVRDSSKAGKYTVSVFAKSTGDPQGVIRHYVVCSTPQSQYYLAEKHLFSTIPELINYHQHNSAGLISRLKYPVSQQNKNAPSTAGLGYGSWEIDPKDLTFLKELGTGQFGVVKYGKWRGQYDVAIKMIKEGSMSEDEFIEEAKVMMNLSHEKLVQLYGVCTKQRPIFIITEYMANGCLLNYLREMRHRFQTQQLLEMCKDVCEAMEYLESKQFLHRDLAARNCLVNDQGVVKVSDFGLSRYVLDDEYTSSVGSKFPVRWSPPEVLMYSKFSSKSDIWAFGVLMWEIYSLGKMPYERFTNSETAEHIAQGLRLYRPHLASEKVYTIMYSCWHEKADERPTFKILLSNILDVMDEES
Nature of the assay: Btk enzyme activity assay, LANCE TR-FRET. It is filed as biochemical. To be noted: 50 pM hBTK, 2 μM biotin-A5-peptide, 25 μM ATP; 60 minute compound & enzyme incubation; 120 minutes reaction; read-out: BTK binding potency IC50. Here is the method: Btk Enzyme Activity Assay Methods
BTK enzymatic activity was determined with the LANCE (Lanthanide Chelate Excite) TR-FRET (lime-resolved fluorescence resonance energy transfer) assay. […] Phosphorylation reactions were allowed to proceed for 120 minutes. […] After 60 minutes incubation with detection reagents, reaction plates were read on a PerkinElmer EnVision plate reader using standard TR-FRET protocol. Briefly, excitation of donor molecules (Eu-chelate:anti-phospho-antibody) with a laser light source at 337 nm produces energy that can be transferred to Dylight-650 acceptor molecules if this donor:acceptor pair is within close proximity. Fluorescence intensity at both 665 nm (acceptor) and 615 nm (donor) are measured and a TR-FRET ratio calculated for each well (acceptor intensity/donor intensity). IC50 values were determined by 4 parameter robust fit of TR-FRET ratio values vs. (Log10) compound concentrations.
On the technique in general: In TR-FRET formats the signal depends on donor and acceptor labels being close together.
As a reminder, the IC50 is the concentration that gives 50% inhibition. For the compound `NC(=O)c1cnc(N2CCCC3(C2)C(=O)NCC3O)c2c1[nH]c1ccccc12` (mixture of isomers) [Example 86, 1-(4-hydroxy-1-oxo-2,7-diazaspiro[4.5]decan-7-yl)-5H-pyrido[4,3-b]indole-4-carboxamide], the IC50 came out at 170 nM.
`CN1C[C@@H](CO)[C@@]2(CCCN(c3ncc(C(N)=O)c4[nH]c5ccccc5c34)C2)C1=O` (racemic) [Example 92, trans-1-(4-(hydroxymethyl)-2-methyl-1-oxo-2,7-diazaspiro[4.5]decan-7-yl)-5H-pyrido[4,3-b]indole-4-carboxamide]: the half-maximal inhibitory concentration (IC50) is 64 nM.
Still for that read-out and setting: the same measure for `NC(=O)c1cnc(N2CCC[C@@]3(C2)C(=O)NC[C@@H]3c2ccccc2)c2c1[nH]c1ccccc12` (single isomer, unassigned) [Example 88, 1-[(trans)-1-oxo-4-phenyl-2,7-diazaspiro[4.5]dec-7-yl]-5H-pyrido[4,3-b]indole-4-carboxamide]: 77.8 nM; for `NC(=O)c1cnc(N2CCC[C@]3(C2)C(=O)NC[C@@H]3c2ccccc2)c2c1[nH]c1ccccc12` (single isomer, unassigned) [Example 89, 1-[(trans)-1-oxo-4-phenyl-2,7-diazaspiro[4.5]dec-7-yl]-5H-pyrido[4,3-b]indole-4-carboxamide]: 669 nM.
For the compound `CN1CC(CO)C2(CCCN(c3ncc(C(N)=O)c4[nH]c5ccccc5c34)C2)C1=O` (single isomer, unassigned) [Example 90, cis-1-(4-(hydroxymethyl)-2-methyl-1-oxo-2,7-diazaspiro[4.5]decan-7-yl)-5H-pyrido[4,3-b]indole-4-carboxamide], the IC50 was determined as 115 nM.
On the same count and under the same terms, under `CN1CC(CO)C2(CCCN(c3ncc(C(N)=O)c4[nH]c5ccccc5c34)C2)C1=O` (single isomer, unassigned) [Example 91, cis-1-(4-(hydroxymethyl)-2-methyl-1-oxo-2,7-diazaspiro[4.5]decan-7-yl)-5H-pyrido[4,3-b]indole-4-carboxamide] stands 1000 nM.
Take `NC(=O)c1cnc(N2CCC[C@]3(C2)C(=O)NC[C@H]3O)c2c1[nH]c1ccccc12` (stereo in doubt) [Example 17, 1-[(4S,5R)-4-hydroxy-1-oxo-2,7-diazaspiro[4.5]dec-7-yl]-5H-pyrido[4,3-b]indole-4-carboxamide]: the half-maximal inhibitory concentration (IC50) came out at 538 nM.
The same measure, in the same setting: the same measure for `NC(=O)c1cnc(N2CCCC3(CCNC3=O)C2)c2c1[nH]c1cc(C3CCNCC3)ccc12` (stereo in doubt) [Example 63, 1-[(5S)-1-oxo-2,7-diazaspiro[4.5]dec-7-yl]-7-piperidin-4-yl-5H-pyrido[4,3-b]indole-4-carboxamide]: 6.3 nM; for `NC(=O)c1cnc(N2CCCC3(CCNC3=O)C2)c2c1[nH]c1cc(C3CCNCC3)ccc12` (stereo in doubt) [Example 64, 1-[(5R)-1-oxo-2,7-diazaspiro[4.5]dec-7-yl]-7-piperidin-4-yl-5H-pyrido[4,3-b]indole-4-carboxamide]: 0.63 nM; for `NC(=O)c1cnc(N2CCC[C@@]3(CCCN(c4ccc(F)cc4)C3=O)C2)c2c1[nH]c1ccccc12` [Example 1, (R)-1-(8-(4-fluorophenyl)-7-oxo-2,8-diazaspiro[5.5]undecan-2-yl)-5H-pyrido[4,3-b]indole-4-carboxamide]: 149 nM.
Same read-out and setting: under `NC(=O)c1cnc(N2CCC[C@]3(CCCN(c4ccc(F)cc4)C3=O)C2)c2c1[nH]c1ccccc12` [Example 2, (S)-1-(8-(4-fluorophenyl)-7-oxo-2,8-diazaspiro[5.5]undecan-2-yl)-5H-pyrido[4,3-b]indole-4-carboxamide] stands 12.9 nM.

The assay is the same for the next values; noted with them: BTK binding potency IC50 (nM), 50 pM hBTK, 2 μM biotin-A5-peptide, 25 μM ATP; 60 minute compound & enzyme incubation; 120 minutes reaction.
For `NC(=O)c1cnc(N2CCCC3(CCNC3=O)C2)c2c1[nH]c1ccccc12` (stereo in doubt) [Example 40, 1-[(5R)-1-oxo-2,7-diazaspiro[4.5]dec-7-yl]-5H-pyrido[4,3-b]indole-4-carboxamide], the IC50 came to 121 nM.
With `NC(=O)c1cnc(N2CCCC3(CCNC3=O)C2)c2c1[nH]c1ccccc12` (stereo in doubt) [Example 41, 1-[(5S)-1-oxo-2,7-diazaspiro[4.5]dec-7-yl]-5H-pyrido[4,3-b]indole-4-carboxamide], the concentration for half-maximal inhibition (IC50) was 10.7 nM.
